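Exposure lasted 48 hours, with cells grown in 96-well plates and compounds tested at five concentrations. The concentration for 50% growth inhibition is given as GI50. TGI: concentration producing complete growth inhibition.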
What was measured:
Test in all cases: NCI-60 cell line screen, 48 h
SK-OV-3 ovarian = tested on: SK-OV-3 ovarian
SR leukemia = tested on: SR leukemia
HS 578T breast = tested on: HS 578T breast
OVCAR-5 ovarian = tested on: OVCAR-5 ovarian
M14 melanoma = tested on: M14 melanoma
LOX IMVI melanoma = tested on: LOX IMVI melanoma
786-0 renal = tested on: 786-0 renal
MCF7 breast = tested on: MCF7 breast
MOLT-4 leukemia = tested on: MOLT-4 leukemia
OVCAR-4 ovarian = tested on: OVCAR-4 ovarian
KM12 colon = tested on: KM12 colon
MALME-3M melanoma = tested on: MALME-3M melanoma
K-562 leukemia = tested on: K-562 leukemia
OVCAR-8 ovarian = tested on: OVCAR-8 ovarian
SN12C renal = tested on: SN12C renal
RPMI-8226 leukemia = tested on: RPMI-8226 leukemia
SNB-19 CNS = tested on: SNB-19 CNS
HCT-116 colon = tested on: HCT-116 colon
HCT-15 colon = tested on: HCT-15 colon
RXF 393 renal = tested on: RXF 393 renal
NCI/ADR-RES ovarian = tested on: NCI/ADR-RES ovarian
NCI-H522 lung = tested on: NCI-H522 lung
HOP-62 NSCLC = tested on: HOP-62 NSCLC
HOP-92 NSCLC = tested on: HOP-92 NSCLC
ACHN renal = tested on: ACHN renal
SNB-75 CNS = tested on: SNB-75 CNS
IGROV1 ovarian = tested on: IGROV1 ovarian
HCC-2998 colon = tested on: HCC-2998 colon
A549 NSCLC = tested on: A549 NSCLC

C[C@H](c1ccc(F)cc1CCCC(=O)O)N(c1cc(F)ccc1F)S(=O)(=O)c1ccc(Cl)cc1
GI50 (SK-OV-3 ovarian): 42.3 µM
TGI (SK-OV-3 ovarian): > 100 µM
GI50 (SR leukemia): 30.4 µM
TGI (SR leukemia): 98.1 µM
GI50 (HS 578T breast): 20 µM
TGI (HS 578T breast): > 85 µM
GI50 (OVCAR-5 ovarian): 43.8 µM
TGI (OVCAR-5 ovarian): > 100 µM
GI50 (M14 melanoma): 22.6 µM
TGI (M14 melanoma): > 80.2 µM
GI50 (LOX IMVI melanoma): 29.2 µM
TGI (LOX IMVI melanoma): > 100 µM
GI50 (786-0 renal): 31.2 µM
TGI (786-0 renal): > 100 µM
GI50 (MCF7 breast): 31.2 µM
TGI (MCF7 breast): > 100 µM
GI50 (MOLT-4 leukemia): 22.8 µM
TGI (MOLT-4 leukemia): > 83 µM
GI50 (OVCAR-4 ovarian): 26.8 µM
TGI (OVCAR-4 ovarian): > 89.9 µM
GI50 (KM12 colon): 26.5 µM
TGI (KM12 colon): > 100 µM
GI50 (MALME-3M melanoma): 23.5 µM
TGI (MALME-3M melanoma): 93.8 µM
GI50 (K-562 leukemia): 36.6 µM
TGI (K-562 leukemia): > 100 µM
GI50 (OVCAR-8 ovarian): 38 µM
TGI (OVCAR-8 ovarian): > 100 µM
GI50 (SN12C renal): 32.2 µM
TGI (SN12C renal): > 100 µM
GI50 (RPMI-8226 leukemia): 30 µM
TGI (RPMI-8226 leukemia): > 88.5 µM
GI50 (SNB-19 CNS): 27.9 µM
TGI (SNB-19 CNS): > 100 µM
GI50 (HCT-116 colon): 19.4 µM
TGI (HCT-116 colon): 47.1 µM
GI50 (HCT-15 colon): 22.3 µM
TGI (HCT-15 colon): 74.7 µM
GI50 (RXF 393 renal): 21 µM
TGI (RXF 393 renal): > 79.7 µM
GI50 (NCI/ADR-RES ovarian): 30.6 µM
TGI (NCI/ADR-RES ovarian): > 100 µM
GI50 (NCI-H522 lung): 26 µM
TGI (NCI-H522 lung): > 93.3 µM
GI50 (HOP-62 NSCLC): 24.4 µM
TGI (HOP-62 NSCLC): > 70.2 µM
GI50 (HOP-92 NSCLC): 17.9 µM
TGI (HOP-92 NSCLC): > 82.5 µM
GI50 (ACHN renal): 30.8 µM
TGI (ACHN renal): > 100 µM
GI50 (SNB-75 CNS): 29.4 µM
TGI (SNB-75 CNS): > 91.3 µM
GI50 (IGROV1 ovarian): 31.7 µM
TGI (IGROV1 ovarian): > 92.4 µM
GI50 (HCC-2998 colon): 20.9 µM
TGI (HCC-2998 colon): 59.4 µM
GI50 (A549 NSCLC): 28.1 µM
TGI (A549 NSCLC): > 100 µM

Source: PubChem BioAssay (NCI)
